Drawing on publication PMC6704710, “Preclinical evaluation of 3D185, a novel potent inhibitor of FGFR1/2/3 and CSF-1R, in FGFR-dependent and macrophage-dominant cancer models” (Journal of Experimental & Clinical Cancer Research : CR, 2019), this text covers inhibition for one compound.

Experiment in all cases: Eurofins kinase panel
Type in all cases: biochemical
Conditions in all cases: read-out: Inhibition rate (%)

The target in one assay is T1, CHK2(h) (Homo sapiens, UniProt O96017).
T1 construct: purchased Eurofins (KinaseProfiler)
T1 sequence (O96017 whole entry): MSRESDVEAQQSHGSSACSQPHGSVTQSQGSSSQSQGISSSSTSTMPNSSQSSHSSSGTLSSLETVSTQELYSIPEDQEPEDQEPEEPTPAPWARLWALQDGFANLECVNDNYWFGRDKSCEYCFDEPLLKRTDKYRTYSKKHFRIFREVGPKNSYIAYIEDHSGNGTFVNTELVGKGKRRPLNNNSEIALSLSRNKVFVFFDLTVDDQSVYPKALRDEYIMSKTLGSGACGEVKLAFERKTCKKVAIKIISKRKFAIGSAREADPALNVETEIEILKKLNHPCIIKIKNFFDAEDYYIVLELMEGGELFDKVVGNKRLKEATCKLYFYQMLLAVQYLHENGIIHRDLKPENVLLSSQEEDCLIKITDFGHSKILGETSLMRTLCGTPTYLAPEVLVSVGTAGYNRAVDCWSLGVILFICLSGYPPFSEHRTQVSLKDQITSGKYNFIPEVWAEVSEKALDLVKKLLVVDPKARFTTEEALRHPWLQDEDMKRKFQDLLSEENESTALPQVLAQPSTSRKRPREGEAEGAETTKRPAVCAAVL

The next assay deals with T2, NEK3(h) (Homo sapiens, UniProt P51956).
T2 construct: purchased Eurofins (KinaseProfiler)
T2 sequence (P51956 1-506): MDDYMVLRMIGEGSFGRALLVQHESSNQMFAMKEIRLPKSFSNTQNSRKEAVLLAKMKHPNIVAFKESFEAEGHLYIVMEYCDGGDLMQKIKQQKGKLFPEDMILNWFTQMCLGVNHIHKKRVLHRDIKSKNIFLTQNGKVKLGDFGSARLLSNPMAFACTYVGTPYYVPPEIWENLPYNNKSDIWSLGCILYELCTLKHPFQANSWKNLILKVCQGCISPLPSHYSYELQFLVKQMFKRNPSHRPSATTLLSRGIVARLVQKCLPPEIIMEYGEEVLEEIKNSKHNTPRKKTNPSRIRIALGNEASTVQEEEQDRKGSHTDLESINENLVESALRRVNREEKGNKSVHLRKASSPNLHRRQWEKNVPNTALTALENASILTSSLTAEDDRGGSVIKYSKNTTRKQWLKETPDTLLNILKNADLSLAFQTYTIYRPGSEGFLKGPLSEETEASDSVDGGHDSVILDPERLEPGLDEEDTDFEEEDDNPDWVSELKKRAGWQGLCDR

The target in a further assay is T3, MuSK(h) (Homo sapiens, UniProt O15146).
T3 construct: purchased Eurofins (KinaseProfiler)
T3 sequence (O15146 24-869): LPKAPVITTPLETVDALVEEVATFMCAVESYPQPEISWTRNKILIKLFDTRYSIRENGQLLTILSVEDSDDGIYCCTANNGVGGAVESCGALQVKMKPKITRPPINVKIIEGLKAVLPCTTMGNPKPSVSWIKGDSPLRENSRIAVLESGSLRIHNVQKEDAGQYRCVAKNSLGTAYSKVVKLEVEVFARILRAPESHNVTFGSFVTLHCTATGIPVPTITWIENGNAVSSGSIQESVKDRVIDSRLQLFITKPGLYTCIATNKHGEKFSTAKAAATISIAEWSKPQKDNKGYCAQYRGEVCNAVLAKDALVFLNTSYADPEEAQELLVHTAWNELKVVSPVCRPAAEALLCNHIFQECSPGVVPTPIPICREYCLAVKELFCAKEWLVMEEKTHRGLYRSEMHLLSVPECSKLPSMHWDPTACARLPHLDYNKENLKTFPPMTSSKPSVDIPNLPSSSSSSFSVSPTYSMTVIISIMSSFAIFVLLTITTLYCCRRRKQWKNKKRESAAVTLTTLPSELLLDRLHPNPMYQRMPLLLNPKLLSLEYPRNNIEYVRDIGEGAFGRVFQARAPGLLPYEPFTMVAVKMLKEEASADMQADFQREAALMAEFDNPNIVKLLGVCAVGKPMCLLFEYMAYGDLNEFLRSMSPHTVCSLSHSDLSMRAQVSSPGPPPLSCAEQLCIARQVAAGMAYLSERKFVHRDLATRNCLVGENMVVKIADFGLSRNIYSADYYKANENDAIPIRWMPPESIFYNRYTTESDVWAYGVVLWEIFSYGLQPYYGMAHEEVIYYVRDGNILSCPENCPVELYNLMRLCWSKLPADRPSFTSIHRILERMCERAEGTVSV

The next assay addresses T4, RIPK1(h) (Homo sapiens, UniProt Q13546).
T4 construct: purchased Eurofins (KinaseProfiler)
T4 sequence (Q13546 1-671): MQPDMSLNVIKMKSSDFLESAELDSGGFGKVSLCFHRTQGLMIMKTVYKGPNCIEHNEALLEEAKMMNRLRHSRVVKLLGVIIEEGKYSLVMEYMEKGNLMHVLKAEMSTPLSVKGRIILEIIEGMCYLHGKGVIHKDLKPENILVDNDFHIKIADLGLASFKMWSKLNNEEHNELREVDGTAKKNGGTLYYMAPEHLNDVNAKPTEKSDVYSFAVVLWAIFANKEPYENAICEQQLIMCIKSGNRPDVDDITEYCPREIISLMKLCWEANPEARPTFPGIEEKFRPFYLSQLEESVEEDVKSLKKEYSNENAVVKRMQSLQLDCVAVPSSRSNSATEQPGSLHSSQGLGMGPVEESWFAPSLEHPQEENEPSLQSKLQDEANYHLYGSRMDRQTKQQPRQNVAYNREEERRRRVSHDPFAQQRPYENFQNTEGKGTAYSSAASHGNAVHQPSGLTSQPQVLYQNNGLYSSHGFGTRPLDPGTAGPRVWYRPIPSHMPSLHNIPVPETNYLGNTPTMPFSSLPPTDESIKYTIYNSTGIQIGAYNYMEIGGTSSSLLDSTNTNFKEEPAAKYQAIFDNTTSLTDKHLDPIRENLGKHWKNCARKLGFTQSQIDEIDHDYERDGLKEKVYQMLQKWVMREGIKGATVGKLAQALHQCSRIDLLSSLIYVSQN

In a further assay the target is T5, Met(M1268T)(h) (Homo sapiens, UniProt P08581, M1250T).
T5 construct: purchased Eurofins (KinaseProfiler)
T5 sequence (P08581 956-1390 M1250T limits assumed): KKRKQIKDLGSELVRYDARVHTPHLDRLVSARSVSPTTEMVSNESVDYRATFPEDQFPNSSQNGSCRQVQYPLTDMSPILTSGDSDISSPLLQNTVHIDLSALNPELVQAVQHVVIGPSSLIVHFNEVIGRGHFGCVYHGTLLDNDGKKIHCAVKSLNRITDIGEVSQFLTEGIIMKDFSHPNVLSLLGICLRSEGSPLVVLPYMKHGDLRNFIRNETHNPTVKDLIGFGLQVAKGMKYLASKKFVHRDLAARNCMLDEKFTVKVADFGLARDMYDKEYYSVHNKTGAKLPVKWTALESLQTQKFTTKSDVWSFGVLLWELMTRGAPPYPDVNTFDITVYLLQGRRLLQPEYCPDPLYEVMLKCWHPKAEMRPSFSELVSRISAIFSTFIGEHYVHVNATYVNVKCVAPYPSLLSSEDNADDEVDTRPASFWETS

With `COc1cc(OC)c(Cl)c(-c2ccc3c(NC(=O)c4ccc(N5CCNC(C)(C)C5)cc4)n[nH]c3n2)c1Cl` [3D185], the inhibition (in general, the change of the read-out against control, counted positive when it falls) at 0.01 µM on CHK2(h) (10 nM) is 0%; at NEK3(h) (10 nM), 10%; at MuSK(h) (10 nM) it was 2%; on RIPK1(h) (10 nM), 4%; on Met(M1268T)(h) (10 nM), -12%. For the same compound, the inhibition at 0.1 µM is 4% at CHK2(h) (100 nM); 13% on NEK3(h) (100 nM); 7% on MuSK(h) (100 nM); 86% at RIPK1(h) (100 nM); -11% at Met(M1268T)(h) (100 nM). Also, the inhibition at 1 µM on CHK2(h) (1000 nM) is 11%; on NEK3(h) (1000 nM), 5%; at MuSK(h) (1000 nM) it was 47%; on RIPK1(h) (1000 nM), 99%; at Met(M1268T)(h) (1000 nM), 15%.
